Results reported in US12492173B2, “Herbicidal substituted N-tetrazolyl aryl carboxamides” (Bayer Aktiengesellschaft, priority 2019, dated 2025).

How the values were obtained:
Format in all cases: in vivo
Amaranthus retroflexus [1] = assay: Post-emergence herbicidal action, AMARE; parameters: key: % herbicidal action vs untreated; 100 = plants died, 0 = like control
Method in brief: (§1)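 After sowing into sandy loam, plants grew 2 to 3 weeks under greenhouse conditions until one leaf, then got a spray of compound as aqueous suspension or emulsion. Roughly three weeks on, activity was estimated visually against untreated pots.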

Stellaria media = assay: Post-emergence herbicidal action, STEME; parameters: key: % herbicidal action vs untreated; 100 = plants died, 0 = like control
Method in brief: as §1

Amaranthus retroflexus [2] = assay: Pre-emergence herbicidal action, AMARE; conditions: dosage 320 g/ha; for herbicidal activity AMARE: scored visually after 3 weeks vs untreated controls (100% = plants have died)
Method in brief: (§2)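 Pre-emergence soil spray over sandy loam-covered seeds; greenhouse 3 weeks; % visual damage (0% = control, 100% = dead).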

Veronica persica = assay: Post-emergence herbicidal action, VERPE; parameters: key: % herbicidal action vs untreated; 100 = plants died, 0 = like control
Method in brief: as §1

Pharbitis purpurea = assay: Post-emergence herbicidal action, PHBPU
Method in brief: as §1

Abutilon theophrasti = assay: Pre-emergence herbicidal action, ABUTH; conditions: dosage 320 g/ha; for herbicidal activity ABUTH: scored visually after 3 weeks vs untreated controls (100% = plants have died)
Method in brief: as §2

Row | Structure (SMILES) | herbicidal action AMARE (Amaranthus retroflexus [1]; Dosage 80 g/ha) | herbicidal action STEME (Stellaria media; Dosage 80 g/ha) | herbicidal activity AMARE (Amaranthus retroflexus [2]) | herbicidal action VERPE (Veronica persica; Dosage 80 g/ha) | herbicidal action PHBPU (Pharbitis purpurea; Dosage 80 g/ha) | herbicidal activity ABUTH (Abutilon theophrasti) | Herbicidal action against AMARE (Amaranthus retroflexus [1]; post-emergence, dosage 80 g/ha) | Herbicidal action against STEME (Stellaria media; post-emergence, dosage 80 g/ha) | herbicidal action AMARE (Amaranthus retroflexus [2]) | Herbicidal action against VERPE (Veronica persica; post-emergence, dosage 80 g/ha) | Herbicidal action against PHBPU (Pharbitis purpurea; post-emergence, dosage 80 g/ha) | herbicidal action ABUTH (Abutilon theophrasti) | herbicidal action AMARE (Amaranthus retroflexus [1]; post-emergence, dosage 80 g/ha) | herbicidal action STEME (Stellaria media; post-emergence, dosage 80 g/ha) | herbicidal action VERPE (Veronica persica; post-emergence, dosage 80 g/ha) | herbicidal action PHBPU (Pharbitis purpurea; post-emergence, dosage 80 g/ha)
1 | CCn1nnnc1NC(=O)c1ccc(C(F)F)c(CSC)c1SC [Example 2-170] | 100 | 100 | 100% | 90 | 90 | 100% |  |  |  |  |  |  |  |  |  | 
2 | CCn1nnnc1NC(=O)c1ccc(C(F)F)c(C[S+](C)[O-])c1SC (stereo not drawn) [Example 2-171] | 100 | 100 | 100% | 100 | 100 | 100% |  |  |  |  |  |  |  |  |  | 
3 | CCn1nnnc1NC(=O)c1ccc(S(C)(=O)=O)c(CS(C)(=O)=O)c1Cl [Example 2-280] |  |  |  |  |  |  | 90 | 100 | 100% | 80 | 90 | 100% |  |  |  | 
4 | CCn1nnnc1NC(=O)c1ccc(C(F)(F)F)c(CSC)c1Cl [Example 2-296] |  |  | 100% |  |  | 100% |  |  |  |  |  |  | 100% | 100% | 100% | 90%
5 | CCn1nnnc1NC(=O)c1ccc(C(F)(F)F)c(C[S+](C)[O-])c1Cl (stereo not drawn) [Example 2-297] |  |  | 100% |  |  | 100% |  |  |  |  |  |  | 100% | 100% | 100% | 100%
6 | CCn1nnnc1NC(=O)c1ccc(C(F)(F)F)c(CS(C)(=O)=O)c1Cl [Example 2-298] | 90 | 100 | 100% | 100 | 90 | 100% |  |  |  |  |  |  |  |  |  | 
7 | CCSCc1c(C(F)(F)F)ccc(C(=O)Nc2nnnn2CC)c1Cl [Example 2-299] |  |  | 100% |  |  | 100% |  |  |  |  |  |  | 90% | 100% | 100% | 90%
8 | CCn1nnnc1NC(=O)c1ccc(C(F)(F)F)c(C[S+]([O-])CC)c1Cl (stereo not drawn) [Example 2-300] |  |  | 100% |  |  | 100% |  |  |  |  |  |  | 100% | 100% | 100% | 90%
9 | CCn1nnnc1NC(=O)c1ccc(C(F)(F)F)c(CS(=O)(=O)CC)c1Cl [Example 2-301] | 80 | 100 |  | 100 | 90 |  |  |  | 100% |  |  | 100% |  |  |  | 
10 | CCn1nnnc1NC(=O)c1ccc(C(F)(F)F)c(CSCCOC)c1Cl [Example 2-305] |  |  | 100% |  |  | 100% |  |  |  |  |  |  | 100% | 100% | 100% | 100%
11 | CCn1nnnc1NC(=O)c1ccc(C(F)(F)F)c(CSCC(F)(F)F)c1Cl [Example 2-311] | 100 | 100 | 100% | 100 | 90 | 100% |  |  |  |  |  |  |  |  |  | 
12 | CCn1nnnc1NC(=O)c1ccc(C(F)(F)F)c(C[S+]([O-])CC2CC2)c1Cl (stereo not drawn) [Example 2-315] | 100 | 100 | 100% | 100 | 100 | 100% |  |  |  |  |  |  |  |  |  | 
13 | CCn1nnnc1NC(=O)c1ccc(C(F)F)c(CSC)c1Cl [Example 2-320] | 100 | 100 | 100% | 100 | 90 | 100% |  |  |  |  |  |  |  |  |  | 
14 | CCn1nnnc1NC(=O)c1ccc(C(F)F)c(CS(C)(=O)=O)c1Cl [Example 2-322] |  |  | 100% |  |  | 100% |  |  |  |  |  |  | 80% | 100% | 90% | 90%
